Legend:
Experiment in all cases: Proliferation of insulin-specific NOD T cell clone
Format in all cases: cell-based, mouse
Conditions in all cases: 50 μg/ml peptide, 72 hours
[1] = system: T cell clone PD12-2.40
Experimental: (§1) Insulin specific NOD T cell lines were established by culturing lymphocytes isolated from islet-infiltrating populations by in vitro stimulation with either porcine insulin at 25 μg/ml and irradiated NOD islet cells in the presence of irradiated NOD spleen cells as antigen presenting cells and cytokines. To obtain the infiltrating lymphocytes the following procedures were performed (see WeLimann et al., Eur. J. Immunol. 24:1853, 1994): the pancreas from the NOD mouse was digested with collatenase and individual islets were isolated manually. The infiltrating lymphocytes were then obtained by mild trypsin digestion of the islets. The insulin specific T cell lines or clones were propagated by serial stimulation in the presence of NOD spleen cells, porcine insulin and lymphokines. Clones were obtained by limiting dilution of the B chain (9-23) specific T cell lines in the presence of the antigen presenting cells and porcine insulin at 25 μg/ml. Wells with a growing population of cells following limiting dilution were expanded in appropriate medium, and after one cycle of growth were tested for reactivity to the B chain (9-23) peptide of insulin by evaluating the proliferative response.
(§2) Insulin B chain (9-23) (SEQ ID NO:2) specific mouse (NOD) T cell clones were isolated from infiltrated islets as described in Example 2. Peptide analogues with single alanine substitutions were prepared as described in Example 1. The effect of each analogue on T cell prolircration was then evaluated using an assay performed in 96-well flat bottom microtiter plates (see Daniel et al., Eur. J. Immunol. 25 :1056, 1995). Briefly 25,000 T cell clones along with 1 million irradiated NOD spleen cells were cultured in the presence of 50 μg/ml of insulin B chain 9-23 peptide or any of the alanine substituted peptides listed below in triplicate sets. The plates were incubated for a total of 72 hours in 7% carbon dioxide atmosphere with a pulse of 1 μCi/well of tritiated thymidine for the last 6-8 hours of culture. Cells were harvested on a glass fiber filter and the associated radioactivity was counted in a liquid scintillation counter. Results are expressed as mean counts per minute of triplicate wells.
NOD T cell clones were incubated in the presence of 50 μM of either the native B chain (9-23) peptide or NBI-6024. The data in Table 3 represent the mean of triplicate sample±standard error of the mean. Within Table 3, S.I. (Stimulation Index)=proliferation (cpm) in the presence of the peptide/proliferation (cpm) in medium alone.

[2] = system: T cell clone PD12-4.4
Experimental: as §1, §2

[3] = system: T cell clone PD6-4.3
Experimental: as §1, §2

[4] = system: T cell clone PD12-4.34
Experimental: as §1, §2

[5] = system: T cell clone PD12-4.29
Experimental: as §1, §2

Row | Substance | Response (cpm) [1] [cpm] | Response (cpm) [2] [cpm] | Response (cpm) [3] [cpm] | Response (cpm) [4] [cpm] | Response (cpm) [5] [cpm]
1 | Modified Position 10: insulin B chain (9-23) peptide analogue with native residue H at position 10 substituted with alanine | 1409 | 823 | 12507 | 356 | 15484
2 | Modified Position 22: insulin B chain (9-23) peptide analogue with native residue R at position 22 substituted with alanine | 51722 | 1313 | 6555 | 1555 | 12635
3 | Modified Position 23: insulin B chain (9-23) peptide analogue with native residue G at position 23 substituted with alanine | 75441 | 3228 | 14304 | 791 | 18422
4 | Modified Position 20: insulin B chain (9-23) peptide analogue with native residue G at position 20 substituted with alanine | 38685 | 1323 | 2440 | 466 | 13736
5 | Modified Position 11: insulin B chain (9-23) peptide analogue with native residue L at position 11 substituted with alanine | 2594 | 474 | 14148 | 190 | 18416
6 | Modified Position 21: insulin B chain (9-23) peptide analogue with native residue E at position 21 substituted with alanine | 39087 | 7900 | 91 | 773 | 4904
7 | Modified Position 19: insulin B chain (9-23) peptide analogue with native residue C at position 19 substituted with alanine | 34212 | 4295 | 7678 | 689 | 6054
